According to paper PMC8429728, “TNK1 is a ubiquitin-binding and 14-3-3-regulated kinase that can be targeted to block tumor growth” (Nature Communications, 2021):
Where two headings read alike, the source gives them in different places.

Experiments:
Assay in all cases: biochemical
Design in all cases: Reaction Biology 371-kinase panel at Km ATP, per cent enzyme activity relative to DMSO, single dose in duplicate
Conditions in all cases: duplicate measurements, Km ATP
AKT3 = AKT3 (Homo sapiens, UniProt Q9Y243)
AKT3, sequence (Q9Y243 whole entry): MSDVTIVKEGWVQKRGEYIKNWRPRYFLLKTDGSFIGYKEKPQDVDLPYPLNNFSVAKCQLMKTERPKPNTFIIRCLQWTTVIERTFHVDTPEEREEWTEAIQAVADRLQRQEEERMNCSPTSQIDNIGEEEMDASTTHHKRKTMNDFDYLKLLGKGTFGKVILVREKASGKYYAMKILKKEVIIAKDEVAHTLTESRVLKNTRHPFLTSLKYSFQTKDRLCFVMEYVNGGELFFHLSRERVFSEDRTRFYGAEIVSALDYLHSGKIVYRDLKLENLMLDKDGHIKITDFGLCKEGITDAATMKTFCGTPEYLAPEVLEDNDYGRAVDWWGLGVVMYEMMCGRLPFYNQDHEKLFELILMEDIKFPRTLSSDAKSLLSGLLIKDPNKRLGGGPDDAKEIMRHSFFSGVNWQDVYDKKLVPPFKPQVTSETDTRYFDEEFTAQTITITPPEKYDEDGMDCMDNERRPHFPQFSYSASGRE
In short: (§1)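 Compound screened at 300 nM in vitro across a 371-kinase panel. Enzyme activity expressed as % of DMSO controls. IC50 values came from sigmoidal variable-slope dose-response fits with the bottom fixed at 0.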

ARAF = target: T1, ARAF (Homo sapiens, UniProt P10398)
T1 sequence (P10398 1-606): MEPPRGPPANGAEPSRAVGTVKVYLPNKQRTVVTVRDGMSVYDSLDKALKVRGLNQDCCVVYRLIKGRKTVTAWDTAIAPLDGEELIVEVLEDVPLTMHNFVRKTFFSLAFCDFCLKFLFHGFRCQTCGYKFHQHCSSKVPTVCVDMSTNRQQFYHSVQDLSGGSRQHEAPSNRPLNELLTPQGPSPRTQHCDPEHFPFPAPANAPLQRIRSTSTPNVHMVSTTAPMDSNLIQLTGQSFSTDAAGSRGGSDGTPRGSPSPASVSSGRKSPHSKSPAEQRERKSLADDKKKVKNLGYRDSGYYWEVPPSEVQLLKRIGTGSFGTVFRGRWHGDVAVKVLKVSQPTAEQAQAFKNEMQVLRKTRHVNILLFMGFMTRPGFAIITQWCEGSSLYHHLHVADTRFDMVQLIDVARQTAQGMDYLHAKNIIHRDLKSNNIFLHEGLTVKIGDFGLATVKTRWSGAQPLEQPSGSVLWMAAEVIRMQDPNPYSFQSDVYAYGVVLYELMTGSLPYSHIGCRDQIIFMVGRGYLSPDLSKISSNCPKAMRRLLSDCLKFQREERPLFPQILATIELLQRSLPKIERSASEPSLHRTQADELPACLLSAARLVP
In short: as §1

CDK18/cyclin Y (PCTK3) = CDK18/cyclin Y (PCTK3) (Homo sapiens, UniProt Q07002)
In short: as §1

CDK3/cyclin E2 = CDK3/cyclin E2 (Homo sapiens, UniProt Q00526)
In short: as §1

CDK4/cyclin D1 = CDK4/cyclin D1 (Homo sapiens, UniProt P11802)
In short: as §1

FMS = target: T2, FMS (Homo sapiens, UniProt P07333)
T2 construct: gene CSF1R
In short: as §1

MEK3 = target: T3, MEK3 (Homo sapiens, UniProt P46734)
T3 construct: gene MAP2K3
T3 sequence (P46734 whole entry): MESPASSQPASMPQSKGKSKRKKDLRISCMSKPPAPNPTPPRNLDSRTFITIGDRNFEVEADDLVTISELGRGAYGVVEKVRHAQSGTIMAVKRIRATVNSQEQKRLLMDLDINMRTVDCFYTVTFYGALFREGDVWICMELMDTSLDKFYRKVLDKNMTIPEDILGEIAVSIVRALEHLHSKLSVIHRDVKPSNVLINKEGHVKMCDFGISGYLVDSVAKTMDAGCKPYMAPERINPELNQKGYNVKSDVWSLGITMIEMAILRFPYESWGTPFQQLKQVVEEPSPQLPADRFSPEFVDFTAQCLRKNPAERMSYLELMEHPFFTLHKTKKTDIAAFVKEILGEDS
In short: as §1

MEKK3 = target: T4, MEKK3 (Homo sapiens, UniProt Q99759)
T4 construct: gene MAP3K3
In short: as §1

MKK6 = target: T5, MKK6 (Homo sapiens, UniProt P52564)
T5 construct: gene MAP2K6
T5 sequence (P52564 whole entry): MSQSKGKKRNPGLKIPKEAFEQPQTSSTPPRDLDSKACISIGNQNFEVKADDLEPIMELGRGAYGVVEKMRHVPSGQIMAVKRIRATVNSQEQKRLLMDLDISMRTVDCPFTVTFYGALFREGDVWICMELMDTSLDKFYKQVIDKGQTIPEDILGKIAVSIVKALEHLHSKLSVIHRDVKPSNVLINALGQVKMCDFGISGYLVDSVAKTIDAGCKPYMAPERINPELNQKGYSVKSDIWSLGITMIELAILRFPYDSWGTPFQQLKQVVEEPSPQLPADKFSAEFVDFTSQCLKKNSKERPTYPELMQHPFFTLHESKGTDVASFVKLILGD
In short: as §1

PAK4 = PAK4 (Homo sapiens, UniProt O96013)
PAK4, sequence (O96013 whole entry): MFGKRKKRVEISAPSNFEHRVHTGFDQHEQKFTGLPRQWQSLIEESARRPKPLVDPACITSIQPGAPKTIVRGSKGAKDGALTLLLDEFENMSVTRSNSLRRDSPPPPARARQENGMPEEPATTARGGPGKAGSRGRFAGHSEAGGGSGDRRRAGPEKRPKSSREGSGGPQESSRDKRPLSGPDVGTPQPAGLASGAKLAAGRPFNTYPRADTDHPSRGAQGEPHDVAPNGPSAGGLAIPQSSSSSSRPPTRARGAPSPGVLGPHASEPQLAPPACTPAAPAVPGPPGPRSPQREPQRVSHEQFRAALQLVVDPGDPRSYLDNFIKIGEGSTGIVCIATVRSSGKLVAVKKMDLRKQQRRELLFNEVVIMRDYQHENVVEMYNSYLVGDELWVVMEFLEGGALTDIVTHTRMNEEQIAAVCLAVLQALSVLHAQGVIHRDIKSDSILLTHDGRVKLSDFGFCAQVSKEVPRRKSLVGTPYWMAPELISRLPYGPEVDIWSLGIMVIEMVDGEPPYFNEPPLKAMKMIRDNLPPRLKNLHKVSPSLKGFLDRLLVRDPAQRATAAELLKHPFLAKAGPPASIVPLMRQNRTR
In short: as §1

PIM1 = PIM1 (Homo sapiens, UniProt P11309)
PIM1, sequence (P11309 whole entry): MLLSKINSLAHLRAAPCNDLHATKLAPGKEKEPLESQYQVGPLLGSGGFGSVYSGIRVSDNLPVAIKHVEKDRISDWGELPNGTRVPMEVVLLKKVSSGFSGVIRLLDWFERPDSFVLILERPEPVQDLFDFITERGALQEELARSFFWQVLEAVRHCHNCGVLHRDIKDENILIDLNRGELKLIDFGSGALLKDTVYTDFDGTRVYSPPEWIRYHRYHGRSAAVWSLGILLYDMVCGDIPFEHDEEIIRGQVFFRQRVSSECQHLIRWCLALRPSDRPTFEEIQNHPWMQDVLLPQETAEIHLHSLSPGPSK
In short: as §1

PKCb2 = target: T6, PKCb2 (Homo sapiens, UniProt P05771)
T6 construct: gene PRKCB; isoform beta II
T6 sequence (P05771 whole entry, canonical isoform): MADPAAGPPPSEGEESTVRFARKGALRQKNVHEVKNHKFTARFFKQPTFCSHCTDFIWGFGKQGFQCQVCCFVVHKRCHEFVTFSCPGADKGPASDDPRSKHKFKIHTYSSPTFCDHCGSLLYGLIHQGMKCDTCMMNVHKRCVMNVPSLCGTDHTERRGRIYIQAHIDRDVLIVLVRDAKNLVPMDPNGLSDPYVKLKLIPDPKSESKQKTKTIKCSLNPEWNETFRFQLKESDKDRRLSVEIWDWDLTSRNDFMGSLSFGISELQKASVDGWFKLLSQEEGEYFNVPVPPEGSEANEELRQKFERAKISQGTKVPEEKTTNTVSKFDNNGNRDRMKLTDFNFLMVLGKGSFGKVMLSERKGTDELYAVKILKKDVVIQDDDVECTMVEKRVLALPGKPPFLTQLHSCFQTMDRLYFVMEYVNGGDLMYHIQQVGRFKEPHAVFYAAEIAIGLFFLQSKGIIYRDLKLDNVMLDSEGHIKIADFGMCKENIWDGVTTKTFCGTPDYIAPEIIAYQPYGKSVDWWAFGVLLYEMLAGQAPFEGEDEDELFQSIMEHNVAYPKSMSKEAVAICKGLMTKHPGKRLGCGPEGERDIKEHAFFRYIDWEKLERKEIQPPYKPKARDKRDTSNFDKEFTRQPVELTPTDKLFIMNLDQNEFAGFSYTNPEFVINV
In short: as §1

PLK1 = PLK1 (Homo sapiens, UniProt P53350)
PLK1, sequence (P53350 whole entry): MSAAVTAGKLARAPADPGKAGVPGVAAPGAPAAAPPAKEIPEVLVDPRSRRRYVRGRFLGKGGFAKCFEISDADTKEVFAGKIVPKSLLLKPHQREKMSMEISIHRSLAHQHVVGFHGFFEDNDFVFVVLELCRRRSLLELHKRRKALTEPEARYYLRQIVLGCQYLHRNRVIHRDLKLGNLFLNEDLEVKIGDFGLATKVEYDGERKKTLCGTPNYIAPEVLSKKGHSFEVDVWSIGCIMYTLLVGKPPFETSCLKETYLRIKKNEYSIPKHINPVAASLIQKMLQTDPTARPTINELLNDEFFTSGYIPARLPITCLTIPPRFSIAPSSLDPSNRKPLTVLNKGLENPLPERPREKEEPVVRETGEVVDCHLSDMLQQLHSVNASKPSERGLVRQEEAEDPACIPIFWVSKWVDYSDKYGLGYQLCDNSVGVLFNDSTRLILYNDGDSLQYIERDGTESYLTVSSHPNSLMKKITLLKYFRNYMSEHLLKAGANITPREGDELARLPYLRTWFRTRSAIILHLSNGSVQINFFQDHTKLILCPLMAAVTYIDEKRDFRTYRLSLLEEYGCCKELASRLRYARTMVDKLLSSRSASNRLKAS
In short: as §1

RET = RET (Homo sapiens, UniProt P07949)
RET, sequence (P07949 whole entry): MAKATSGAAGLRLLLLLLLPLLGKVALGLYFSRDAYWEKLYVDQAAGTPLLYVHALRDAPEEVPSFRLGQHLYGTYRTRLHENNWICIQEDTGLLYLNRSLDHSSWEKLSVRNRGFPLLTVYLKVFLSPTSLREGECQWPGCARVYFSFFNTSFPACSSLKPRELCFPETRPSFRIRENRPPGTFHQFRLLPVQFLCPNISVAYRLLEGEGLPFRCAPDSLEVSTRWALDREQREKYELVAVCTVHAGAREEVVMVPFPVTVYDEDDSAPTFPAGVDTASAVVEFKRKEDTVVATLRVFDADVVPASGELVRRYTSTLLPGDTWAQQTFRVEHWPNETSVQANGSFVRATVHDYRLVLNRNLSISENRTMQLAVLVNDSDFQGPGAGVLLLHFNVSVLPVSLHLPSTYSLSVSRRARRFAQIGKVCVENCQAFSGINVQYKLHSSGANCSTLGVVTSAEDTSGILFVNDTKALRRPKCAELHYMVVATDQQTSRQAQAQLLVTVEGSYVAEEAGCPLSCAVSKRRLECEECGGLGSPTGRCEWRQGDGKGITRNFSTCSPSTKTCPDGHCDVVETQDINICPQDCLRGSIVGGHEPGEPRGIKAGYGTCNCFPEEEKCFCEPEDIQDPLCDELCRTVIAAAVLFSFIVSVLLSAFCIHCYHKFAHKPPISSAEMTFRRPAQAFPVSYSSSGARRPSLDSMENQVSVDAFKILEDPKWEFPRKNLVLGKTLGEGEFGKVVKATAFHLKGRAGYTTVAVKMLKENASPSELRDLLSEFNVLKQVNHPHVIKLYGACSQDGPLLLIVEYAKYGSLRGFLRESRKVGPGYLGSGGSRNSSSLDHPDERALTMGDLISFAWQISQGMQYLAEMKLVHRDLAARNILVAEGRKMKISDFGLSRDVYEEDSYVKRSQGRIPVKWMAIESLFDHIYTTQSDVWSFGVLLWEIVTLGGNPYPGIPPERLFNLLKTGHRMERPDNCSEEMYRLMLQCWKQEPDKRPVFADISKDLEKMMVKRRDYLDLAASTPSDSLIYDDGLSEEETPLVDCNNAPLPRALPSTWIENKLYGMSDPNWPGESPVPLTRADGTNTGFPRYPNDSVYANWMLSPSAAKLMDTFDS
In short: as §1

SIK1 = SIK1 (Homo sapiens, UniProt P57059)
In short: as §1

TAOK1 = TAOK1 (Homo sapiens, UniProt Q7L7X3)
In short: as §1

[1] = read-out: % Enzyme Activity (relative to DMSO controls) / TP-0005801 (0.3µM) / Data 1
[2] = read-out: % Enzyme Activity (relative to DMSO controls) / TP-0005801 (0.3µM) / Data 2

Question: How did the remaining activity at 0.3 µM (AKT3; [1]) turn out when `COc1cc(N2CCN(C)CC2)c(C)cc1Nc1ncc(Br)c(Nc2cccnc2N(C)C)n1` [TP-5801] was run?
Answer: 105%

Question: What about the remaining activity at 0.3 µM (AKT3; [2]) of the same compound?
Answer: 98.7%

Question: And the remaining activity at 0.3 µM (ARAF; [1])?
Answer: 88.1%

Question: What about the remaining activity at 0.3 µM (ARAF; [2]) of the same compound?
Answer: 82.3%

Question: What about the remaining activity at 0.3 µM (CDK18/cyclin Y (PCTK3); [1]) of the same compound?
Answer: 98%

Question: And the remaining activity at 0.3 µM (CDK18/cyclin Y (PCTK3); [2])?
Answer: 94.2%

Question: What about the remaining activity at 0.3 µM (CDK3/cyclin E2; [1]) of the same compound?
Answer: 95.5%

Question: And the remaining activity at 0.3 µM (CDK3/cyclin E2; [2])?
Answer: 95.1%

Question: And the remaining activity at 0.3 µM (CDK4/cyclin D1; [1])?
Answer: 106%

Question: And the remaining activity at 0.3 µM (CDK4/cyclin D1; [2])?
Answer: 104%

Question: And the remaining activity at 0.3 µM (FMS; [1])?
Answer: 56.3%

Question: And the remaining activity at 0.3 µM (FMS; [2])?
Answer: 55.6%

Question: What about the remaining activity at 0.3 µM (MEK3; [1]) of the same compound?
Answer: 174%

Question: And the remaining activity at 0.3 µM (MEK3; [2])?
Answer: 173%

Question: And the remaining activity at 0.3 µM (MEKK3; [1])?
Answer: 92.4%

Question: What about the remaining activity at 0.3 µM (MEKK3; [2]) of the same compound?
Answer: 88.5%

Question: What about the remaining activity at 0.3 µM (MKK6; [1]) of the same compound?
Answer: 116%

Question: And the remaining activity at 0.3 µM (MKK6; [2])?
Answer: 115%

Question: And the remaining activity at 0.3 µM (PAK4; [1])?
Answer: 59.4%

Question: And the remaining activity at 0.3 µM (PAK4; [2])?
Answer: 54.7%

Question: What about the remaining activity at 0.3 µM (PIM1; [1]) of the same compound?
Answer: 93.2%

Question: And the remaining activity at 0.3 µM (PIM1; [2])?
Answer: 92.8%

Question: What about the remaining activity at 0.3 µM (PKCb2; [1]) of the same compound?
Answer: 94.4%

Question: What about the remaining activity at 0.3 µM (PKCb2; [2]) of the same compound?
Answer: 93.6%

Question: And the remaining activity at 0.3 µM (PLK1; [1])?
Answer: 88.7%

Question: And the remaining activity at 0.3 µM (PLK1; [2])?
Answer: 87.8%

Question: What about the remaining activity at 0.3 µM (RET; [1]) of the same compound?
Answer: 83.2%

Question: And the remaining activity at 0.3 µM (RET; [2])?
Answer: 81.2%

Question: And the remaining activity at 0.3 µM (SIK1; [1])?
Answer: 94.2%

Question: What about the remaining activity at 0.3 µM (SIK1; [2]) of the same compound?
Answer: 92.8%

Question: What about the remaining activity at 0.3 µM (TAOK1; [1]) of the same compound?
Answer: 73.3%

Question: What about the remaining activity at 0.3 µM (TAOK1; [2]) of the same compound?
Answer: 68.3%
